Data as given in patent publication US20100160442A1, “FORMULATIONS FOR CANCER TREATMENT” (priority 2006, published 2010).
Converted amounts (≈) assume the structure as drawn.

Assays:
Assay type in all cases: physicochemical
[1] = Compounding studies: time for drug substance to dissolve in 25% HPBCD
Experimental: 1. 300 mg of BA was added to 30 ml of a 25% HPBCD (containing 0.6% saline) and mixed using a magnetic stirrer. The drug substance dissolved in 4 hours. This is deemed to be an unacceptably long time for a viable manufacturing process and it was decided to evaluate a procedure involving dissolving the drug substance directly in the HPBCD. 2. In a second study 500 mg of BA dissolved in a 50 ml of a 25% HPBCD vehicle (no saline) in approx 90 minutes. The dissolution rate of BA was deemed to be a more acceptable time and provides some prospect for a viable larger scale process. Further excipients could be added after the drug substance has been dissolved.

[2] = Saturated solubility of BA in solvents, 25° C., absorbance at 320 nm; details: thermodynamic from solid
[3] = Equilibrium solubility of 4-iodo-3-nitrobenzamide, overnight at 25° C., measured by HPLC; details: for solubility: 25 °C, thermodynamic from solid, read-out: Solubility
Experimental: Excess 4-iodo-3-nitrobenzamide (“BA”) was equilibrated overnight (>16 hr) at 25° C. in purified water, 0.01M HCl (pH2), 0.01M NaOH ([…]), and 0.9% NaCl. Following dilution, the solubility of the drug was measured by HPLC.
Excess 4-iodo-3-nitrobenzamide was equilibrated overnight (>16 hr) at 25° C. in solutions of purified water containing various concentrations of cyclodextrins including hydroxypropyl-β-cyclodextrin (Kleptose® from Roquette) (HPBCD), sulfobutyl ether-β-cyclodextrin (Captisol® from Cyclex) (SBEBCD), and Hyroxypropyl-γ-cyclodextrin (Cavamax W8® from Wacker) (HPGCD). Following dilution, the solubility of the drug was measured by HPLC.
Excess 4-iodo-3-nitrobenzamide was equilibrated overnight (>16 hr) at 25° C. in purified water containing various concentrations of the surfactants: polyethylene sorbitan monooleate (Polysorbate 80), polyoxyethylene sorbitan monolaurate (Polysorbate 20), Cremophor EL (BASF), Cremophor RH40 (BASF), Poloxamer 118, and Solutol HS-15 (BASF). Following dilution, the solubility of the drug was measured by HPLC.
Excess 4-iodo-3-nitrobenzamide was equilibrated overnight (>16 hr) at 25° C. in solutions of purified water containing various co-solvents including ethanol, glycofurol, glycerin formal, benzyl alcohol, N,N, dimethylacetamide (DMA), polyethylene glycol (PEG) 400, and propylene glycol. Following dilution, the solubility of the drug was measured by HPLC.
Excess 4-iodo-3-nitrobenzamide was equilibrated overnight (>16 hr) at 25° C. in solutions in purified water containing mixtures of solubilizers. Following dilution, the solubility of the drug was measured by HPLC.

SMILES: NC(=O)c1ccc(I)c([N+](=O)[O-])c1 [BA, 4-iodo-3-nitrobenzamide]
- Time for drug substance to dissolve ([1]; 300 mg of BA in 30 ml of 25% HPBCD containing 0.6% saline, magnetic stirrer): 4 h
- Time for drug substance to dissolve ([1]; 500 mg of BA in 50 ml of 25% HPBCD vehicle (no saline)): approx 90 minutes
- solubility ([2]; 35% v/v DMA in Capmul PG-8, 25 °C, oil or lipid, 35% v/v DMA in Capmul PG-8, read from the graph of FIG. 2, read-out: Saturated solubility): ~220 mg/mL (≈ 753 mM)
- solubility ([2]; solvent (liquid filled capsule vehicle), 25 °C, oil or lipid, 10% v/v DMA in Capmul, 25° C., read-out: BA Solubility): 57 mg/mL (≈ 195 mM)
- solubility ([2]; solvent (liquid filled capsule vehicle), 25 °C, oil or lipid, 20% v/v DMA in Capmul, 25° C., read-out: BA Solubility): 89 mg/mL (≈ 305 mM)
- solubility ([2]; solvent (liquid filled capsule vehicle), 25 °C, oil or lipid, 30% v/v DMA in Capmul, 25° C., read-out: BA Solubility): 176 mg/mL (≈ 603 mM)
- solubility ([2]; solvent (liquid filled capsule vehicle), 25 °C, oil or lipid, 40% DMA in Capmul, 25° C., read-out: BA Solubility): 276 mg/mL (≈ 945 mM)
- solubility ([2]; solvent (liquid filled capsule vehicle), 25 °C, oil or lipid, 40% v/v Transcutol in Capmul, 25° C., read-out: BA Solubility): 73 mg/mL (≈ 250 mM)
- solubility ([2]; solvent (liquid filled capsule vehicle), 25 °C, oil or lipid, 100% Capmul, 25° C., read-out: BA Solubility): 32 mg/mL (≈ 110 mM)
- solubility ([2]; solvent (liquid filled capsule vehicle), 25 °C, oil or lipid, 100% Labrafil, 25° C., read-out: BA Solubility): 18 mg/mL (≈ 61.6 mM)
- solubility ([2]; solvent (liquid filled capsule vehicle), 25 °C, organic solvent or mixture, 20% v/v glycerol, 3% v/v water in PEG 400, 25° C., read-out: BA Solubility): 192 mg/mL (≈ 657 mM)
- solubility ([2]; solvent (liquid filled capsule vehicle), 25 °C, organic solvent or mixture, 25% w/v Solutol in PEG 400, 25° C., read-out: BA Solubility): 224 mg/mL (≈ 767 mM)
- solubility ([2]; solvent (liquid filled capsule vehicle), 25 °C, organic solvent or mixture, 25% w/v Vit E TPGS in PEG 400, 25° C., read-out: BA Solubility): 204 mg/mL (≈ 699 mM)
- solubility ([2]; solvent (liquid filled capsule vehicle), 25 °C, organic solvent or mixture, 100% NMP, 25° C., read-out: BA Solubility): 319 mg/mL (≈ 1090 mM)
- solubility ([2]; solvent (liquid filled capsule vehicle), 25 °C, organic solvent or mixture, 100% PEG 400, 25° C., read-out: BA Solubility): 186 mg/mL (≈ 637 mM)
- solubility ([2]; solvent (liquid filled capsule vehicle), 25 °C, organic solvent or mixture, 100% Transcutol, 25° C., read-out: BA Solubility): 192 mg/mL (≈ 657 mM)
- solubility ([3]; 0.01 M HCl, pH 2, simulated gastric fluid, 0.01 M HCl (pH 2), 25° C.): 179 µg/mL (≈ 0.613 mM)
- solubility ([3]; 0.01 M NaOH, pH 13, aqueous buffer, 0.01M NaOH (pH 13), 25° C.): 181 µg/mL (≈ 0.62 mM)
- solubility ([3]; 0.9% NaCl, saline or isotonic, 0.9% NaCl, 25° C.): 164 µg/mL (≈ 0.562 mM)
- solubility ([3]; 5% DMA (N,N-dimethylacetamide) in purified water, aqueous with cosolvent or surfactant or cyclodextrin, DMA 5%, 25° C.): 1390 µg/mL (≈ 4.76 mM)
- Enhancement ([3]; 5% DMA/5% EtOH/40% PEG 400): 44.0
- solubility ([3]; 5% DMA/5% EtOH/40% PEG 400 in purified water, aqueous with cosolvent or surfactant or cyclodextrin, 5% DMA/5% EtOH/40% PEG 400, 25° C.): 8010 µg/mL (≈ 27.4 mM)
- Enhancement ([3]; 5% DMA/25% Solutol HS-15): 45.7
- solubility ([3]; 5% DMA/25% Solutol HS-15 in purified water, aqueous with cosolvent or surfactant or cyclodextrin, 5% DMA/25% Solutol HS-15, 25° C.): 8320 µg/mL (≈ 28.5 mM)
- Enhancement ([3]; 5% DMA/40% PEG 400): 33.2
- solubility ([3]; 5% DMA/40% PEG 400 in purified water, aqueous with cosolvent or surfactant or cyclodextrin, 5% DMA/40% PEG 400, 25° C.): 6050 µg/mL (≈ 20.7 mM)
- Enhancement ([3]; 5% Polysorbate 20/5% ETOH): 12.1
- solubility ([3]; 5% Polysorbate 20/5% ethanol in purified water, aqueous with cosolvent or surfactant or cyclodextrin, 5% Polysorbate 20/5% ETOH, 25° C.): 2210 µg/mL (≈ 7.57 mM)
- Enhancement ([3]; 5% Polysorbate 20/5% glycofurol): 11.0
- solubility ([3]; 5% Polysorbate 20/5% glycofurol in purified water, aqueous with cosolvent or surfactant or cyclodextrin, 5% Polysorbate 20/5% glycofurol, 25° C.): 2000 µg/mL (≈ 6.85 mM)
- Enhancement ([3]; 5% Polysorbate 80/5% ETOH): 12.3
- solubility ([3]; 5% Polysorbate 80/5% ethanol in purified water, aqueous with cosolvent or surfactant or cyclodextrin, 5% Polysorbate 80/5% ETOH, 25° C.): 2230 µg/mL (≈ 7.64 mM)
- Enhancement ([3]; 5% Polysorbate 80/5% glycofurol): 13.1
- solubility ([3]; 5% Polysorbate 80/5% glycofurol in purified water, aqueous with cosolvent or surfactant or cyclodextrin, 5% Polysorbate 80/5% glycofurol, 25° C.): 2390 µg/mL (≈ 8.18 mM)
- Enhancement ([3]; 5% Polysorbate 80/10% EtOH/40% PEG 400): 6.7
- solubility ([3]; 5% glucose (5GW), saline or isotonic, 5% Glucose (5GW), 25° C.): 173 µg/mL (≈ 0.592 mM)
- solubility ([3]; 10% Cremophor EL in purified water, aqueous with cosolvent or surfactant or cyclodextrin, Cremophor EL 10%, 25° C.): 3500 µg/mL (≈ 12 mM)
- solubility ([3]; 10% Cremophor RH40 in purified water, aqueous with cosolvent or surfactant or cyclodextrin, Cremophor RH40 10%, 25° C.): 3370 µg/mL (≈ 11.5 mM)
- Enhancement ([3]; 10% EtOH/10% Polysorbate 80): 11.5
- Enhancement ([3]; 10% EtOH/40% PEG 400): 18.8
- Enhancement ([3]; 10% EtOH/40% PEG 400,/5% Benzyl Alcohol): 17.1
- solubility ([3]; 10% HPBCD in purified water, aqueous with cosolvent or surfactant or cyclodextrin, HPBCD 10% in purified water, 25° C.): 4860 µg/mL (≈ 16.6 mM)
- solubility ([3]; 10% Poloxamer 118 in purified water, aqueous with cosolvent or surfactant or cyclodextrin, Poloxamer 118 10%, 25° C.): 430 µg/mL (≈ 1.47 mM)
- solubility ([3]; 10% Polysorbate 20 in purified water, aqueous with cosolvent or surfactant or cyclodextrin, Polysorbate 20 10%, 25° C.): 3660 µg/mL (≈ 12.5 mM)
- solubility ([3]; 10% Polysorbate 80 in purified water, aqueous with cosolvent or surfactant or cyclodextrin, Polysorbate 80 10%, 25° C.): 3120 µg/mL (≈ 10.7 mM)
- Enhancement ([3]; 10% glycofurol, 40% PEG 400): 33.6
- solubility ([3]; 20% HPBCD in purified water, aqueous with cosolvent or surfactant or cyclodextrin, HPBCD 20% in purified water, 25° C.): 9960 µg/mL (≈ 34.1 mM)
- solubility ([3]; 25% HPBCD in purified water, aqueous with cosolvent or surfactant or cyclodextrin, HPBCD 25% in purified water, 25° C.): 11500 µg/mL (≈ 39.3 mM)
- solubility ([3]; 25% HPGCD in purified water, aqueous with cosolvent or surfactant or cyclodextrin, HPGCD 25% in purified water, 25° C.): 272 µg/mL (≈ 0.931 mM)
- solubility ([3]; 25% SBEBCD in purified water, aqueous with cosolvent or surfactant or cyclodextrin, SBEBCD 25% in purified water, 25° C.): 11000 µg/mL (≈ 37.8 mM)
- solubility ([3]; 25% Solutol HS 15 in purified water, aqueous with cosolvent or surfactant or cyclodextrin, Solutol HS 15 25%, 25° C.): 6550 µg/mL (≈ 22.4 mM)
